Reference: US9951065B2 (Gilead Sciences, Inc., priority 2015, dated 2018)

Biological target: T1, IDO1 (Homo sapiens, UniProt P14902)
T1 construct: HeLa cells were treated with a test compound in the presence of IFNγ, which induces IDO1 expression; host or cells: H1-HeLa cells, IDO1 induced with IFNγ
Assay: Cell-based (HeLa) assay for measurement of IDO1 inhibition (kynurenine levels in supernatant after IFNγ induction)
Conditions: HeLa cells, geometric mean of a minimum of four determinations
Protocol: Example 509. Cell-Based (HeLa) Assay for Measurement of IDOL Inhibition
To measure IDO1 inhibition in tissue culture, HeLa cells were treated with a test compound in the presence of IFNγ, which induces IDO1 expression. Following incubation, cell supernatants were assayed for kynurenine levels, an indicator of IDO1 activity.
H1-HeLa cells (ATCC #CRL-1958) were seeded in 384-well plates (Greiner #82051-282) at a volume of 50 μL/well in DMEM (Corning #15-018-CM) supplemented with 10% FBS (Corning #35-011-CV) and 1% P/S/G (Corning #30-009-CL) at a density of 1,250 cells/well and incubated overnight at 37° C., 5% CO2/100% humidity. The following day, the test compounds were added in DMSO (0.5% final) at various concentrations, and IDO1 was inducibly expressed by the addition of 50 uL/well of […] of INFγ (Peprotech #300-02) in cell plating media. As a […] control, 50 uL of the cell plating media without IFNγ was added to several wells. Following a 48 hour incubation, the plates were spun down at 1,200 RPM for 5 min at 10° C. 65 μL/well of the supernatant was then transferred to new 384-well plates (Thermo #262160) that contained 10 uL/well of 30% TCA (Sigma #TO699), and the plates were sealed and incubated at 60° C. for 30 min. The plates were then centrifuged for 15 min at 2,000 RPM at 10° C. 40 μL/well of the supernatant was transferred to new 384-well plates (Thermo #262160) and was reacted with 40 μL/well of 2% (w/v) p-dimethlyaminobenzaldehyde (Sigma #156417) in glacial acetic acid (Sigma #A6283). The reaction was incubated at room temperature for 10 min and absorbance at 480 nm was read using a PerkinElmer Envision plate reader.
Data in Table 1 were normalized based on positive (−IFNγ) and negative (+IFNγ) controls and EC50 values were calculated from the fit of the dose response curves to a four-parameter equation. All EC50 values represent geometric mean values of a minimum of four determinations. These assays generally produced results within 2-fold of the reported mean.

[1] = IFNγ-induced IDO1, kynurenine in supernatant, 48 hour incubation
[2] = IFNγ-induced IDO1, kynurenine in supernatant after 48 hour incubation

T1 sequence (P14902 whole entry): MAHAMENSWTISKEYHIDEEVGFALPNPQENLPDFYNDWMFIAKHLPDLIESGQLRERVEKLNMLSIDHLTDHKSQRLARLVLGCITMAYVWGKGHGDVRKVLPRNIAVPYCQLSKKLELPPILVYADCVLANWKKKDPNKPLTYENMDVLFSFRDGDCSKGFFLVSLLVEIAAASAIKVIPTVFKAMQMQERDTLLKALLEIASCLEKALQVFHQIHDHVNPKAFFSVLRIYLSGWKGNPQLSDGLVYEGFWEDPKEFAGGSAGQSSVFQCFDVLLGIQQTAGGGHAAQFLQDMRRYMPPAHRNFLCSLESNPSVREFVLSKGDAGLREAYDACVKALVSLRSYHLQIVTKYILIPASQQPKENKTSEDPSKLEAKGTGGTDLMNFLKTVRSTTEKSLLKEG

Row | EC50 [1] | EC50 [2] | Compound
1 | 568 nM |  | O/N=C(\Nc1ccc(F)c(Cl)c1)c1cc(F)c(F)c2nc(NCCN3CC[C@H](O)C3)[nH]c12 [Example 452, (S)—N-(3-chloro-4-fluorophenyl)-4,5-difluoro-N′-hydroxy-2-((2-(3-hydroxypyrrolidin-1-yl)ethyl)amino)-1H-benzo[d]imidazole-7-carboximidamide]
2 | 882 nM |  | O/N=C(\Nc1ccc(F)c(Cl)c1)c1cc(F)c(F)c2nc(NCCCN3CCOCC3)[nH]c12 [Example 433, N-(3-chloro-4-fluorophenyl)-4,5-difluoro-N′-hydroxy-2-((3-morpholinopropyl)amino)-1H-benzo[d]imidazole-7-carboximidamide]
3 |  | 2740 nM | Nc1nc2c(F)c(F)cc(/C(=N/O)Nc3ccc(F)c(Cl)c3)c2[nH]1 [Example 13, 2-Amino-N-(3-chloro-4-fluorophenyl)-4,5-difluoro-N′-hydroxy-1H-benzo[d]imidazole-7-carboximidamide]
4 |  | 358 nM | O/N=C(\Nc1ccc(F)c(Cl)c1)c1ccnc2nc(CCN3CCCC3)[nH]c12 [Example 193, N-(3-Chloro-4-fluorophenyl)-N′-hydroxy-2-(2-(pyrrolidin-1-yl)ethyl)-1H-imidazo[4,5-b]pyridine-7-carboximidamide]
5 |  | 438 nM | O/N=C(\Nc1ccc(F)c(Cl)c1)c1cc(F)c(F)c2nc[nH]c12 [Example 10, N-(3-chloro-4-fluorophenyl)-4,5-difluoro-N′-hydroxy-1H-benzo[d]imidazole-7-carboximidamide]
6 | 7110 nM |  | CS(=O)(=O)NCCNc1nc2nccc(/C(=N/O)Nc3ccc(F)c(Cl)c3)c2[nH]1 [Example 405, N-(3-chloro-4-fluorophenyl)-N′-hydroxy-2-((2-(methylsulfonamido)ethyl)amino)-1H-imidazo[4,5-b]pyridine-7-carboximidamide]
7 |  | 208 nM | O/N=C(\Nc1ccc(F)c(Cl)c1)c1ccnc2nc[nH]c12 [Example 59, N-(3-Chloro-4-fluorophenyl)-N′-hydroxy-1H-imidazo[4,5-b]pyridine-7-carboximidamide]
8 |  | 2180 nM | O/N=C(\Nc1ccc(F)c(Cl)c1)c1ccnc2nc(NCCC3CCCCC3)[nH]c12 [Example 223, N-(3-chloro-4-fluorophenyl)-2-((2-cyclohexylethyl)amino)-N′-hydroxy-1H-imidazo[4,5-b]pyridine-7-carboximidamide]
9 | 1240 nM |  | O/N=C(\Nc1ccc(F)c(Cl)c1)c1cc(F)c(F)c2nc(NCCCN3CCCC3)[nH]c12 [Example 434, N-(3-chloro-4-fluorophenyl)-4,5-difluoro-N′-hydroxy-2-((3-(pyrrolidin-1-yl)propyl)amino)-1H-benzo[d]imidazole-7-carboximidamide]
10 | 3240 nM |  | CN1CCOC(CNc2nc3nccc(/C(=N/O)Nc4ccc(F)c(Cl)c4)c3[nH]2)C1 (stereo not shown) [Example 357, N-(3-chloro-4-fluorophenyl)-N′-hydroxy-2-(((4-methylmorpholin-2-yl)methyl)amino)-1H-imidazo[4,5-b]pyridine-7-carboximidamide]
11 | 4050 nM |  | CC(CN(C)C)c1nc2nccc(/C(=N/O)Nc3ccc(F)c(Cl)c3)c2[nH]1 (stereo not shown) [Example 326, N-(3-chloro-4-fluorophenyl)-2-(1-(dimethylamino)propan-2-yl)-N′-hydroxy-1H-imidazo[4,5-b]pyridine-7-carboximidamide]
12 |  | 3400 nM | CN(CCc1nc2nccc(/C(=N/O)Nc3ccc(F)c(Cl)c3)c2[nH]1)CC(F)F [Example 187, N-(3-Chloro-4-fluorophenyl)-2-(2-((2,2-difluoroethyl)(methyl)amino)ethyl)-N′-hydroxy-1H-imidazo[4,5-b]pyridine-7-carboximidamide]
13 |  | 473 nM | CN(C)CCCNc1nc2c(F)c(F)cc(/C(=N/O)Nc3ccc(F)c(Cl)c3)c2[nH]1 [Example 39, N-(3-Chloro-4-fluorophenyl)-2-((3-(dimethylamino)propyl)amino)-4,5-difluoro-N′-hydroxy-1H-benzo[d]imidazole-7-carboximidamide]
14 |  | 570 nM | Nc1nc2c(F)c(F)cc(/C(=N/O)Nc3cccc(Br)c3)c2[nH]1 [Example 15, 2-Amino-N-(3-bromophenyl)-4,5-difluoro-N′-hydroxy-1H-benzo[d]imidazole-7-carboximidamide]
15 |  | 1340 nM | CN1CCC(Nc2nc3nccc(/C(=N/O)Nc4ccc(F)c(Cl)c4)c3[nH]2)C1 (stereo not shown) [Example 203, N-(3-Chloro-4-fluorophenyl)-N′-hydroxy-2-[(1-methylpyrrolidin-3-yl)amino]-1H-imidazo[4,5-b]pyridine-7-carboximidamide]
16 |  | 566 nM | CC(C)NCc1nc2c(/C(=N/O)Nc3ccc(F)c(Cl)c3)cc(F)c(F)c2[nH]1 [Example 51, N-(3-Chloro-4-fluorophenyl)-6,7-difluoro-N′-hydroxy-2-((isopropylamino)methyl)-1H-benzo[d]imidazole-4-carboximidamide]
17 |  | 6270 nM | CN(C)CCNCc1nc2nccc(/C(=N/O)Nc3ccc(F)c(Cl)c3)c2[nH]1 [Example 136, N-(3-Chloro-4-fluorophenyl)-2-(((2-(dimethylamino)ethyl)amino)methyl)-N′-hydroxy-1H-imidazo[4,5-b]pyridine-7-carboximidamide]
18 | 1190 nM |  | CCN(CC)[C@H]1COC[C@@H]1Nc1nc2nccc(C(=NO)Nc3ccc(F)c(Cl)c3)c2[nH]1 [Example 480, N-(3-chloro-4-fluorophenyl)-2-(((3R,4R)-4-(diethylamino)tetrahydrofuran-3-yl)amino)-N′-hydroxy-1H-imidazo[4,5-b]pyridine-7-carboximidamide]
19 | 998 nM |  | CN(C)[C@@H]1CCCC[C@H]1Nc1nc2c(F)c(F)cc(/C(=N/O)Nc3ccc(F)c(Cl)c3)c2[nH]1 [Example 437, N-(3-chloro-4-fluorophenyl)-2-(((1R,2R)-2-(dimethylamino)cyclohexyl)amino)-4,5-difluoro-N′-hydroxy-1H-benzo[d]imidazole-7-carboximidamide]
20 |  | 2150 nM | O/N=C(\Nc1ccc(F)c(Cl)c1)c1ccnc2nc(Nc3ccccc3)[nH]c12 [Example 155, N-(3-Chloro-4-fluorophenyl)-N′-hydroxy-2-(phenylamino)-1H-imidazo[4,5-b]pyridine-7-carboximidamide]
21 |  | 923 nM | O/N=C(\Nc1ccc2c(c1)OC(F)(F)O2)c1ccnc2nc[nH]c12 [Example 74, N-(2,2-Difluorobenzo[d][1,3]dioxol-5-yl)-N′-hydroxy-1H-imidazo[4,5-b]pyridine-7-carboximidamide]
22 |  | 2010 nM | CNCCNc1nc2nccc(/C(=N/O)Nc3ccc(F)c(Cl)c3)c2[nH]1 [Example 216, N-(3-chloro-4-fluorophenyl)-N′-hydroxy-2-((2-(methylamino)ethyl)amino)-1H-imidazo[4,5-b]pyridine-7-carboximidamide]
23 |  | 5160 nM | O/N=C(\Nc1ccc(F)c(Cl)c1)c1ccnc2nc(CNCC(F)F)[nH]c12 [Example 142, N-(3-Chloro-4-fluorophenyl)-2-(((2,2-difluoroethyl)amino)methyl)-N′-hydroxy-1H-imidazo[4,5-b]pyridine-7-carboximidamide]
24 |  | 463 nM | Cc1c[nH]c(-c2nc3nccc(/C(=N/O)Nc4ccc(F)c(Cl)c4)c3[nH]2)n1 [Example 151, N-(3-Chloro-4-fluorophenyl)-N′-hydroxy-2-(4-methyl-1H-imidazol-2-yl)-1H-imidazo[4,5-b]pyridine-7-carboximidamide]
25 |  | 140 nM | O/N=C(\Nc1ccc(F)c(Br)c1)c1ccnc2nc[nH]c12 [Example 81, N-(3-Bromo-4-fluorophenyl)-N′-hydroxy-1H-imidazo[4,5-b]pyridine-7-carboximidamide]
26 | 1430 nM |  | O/N=C(\Nc1ccc(F)c(Cl)c1)c1cc(F)c(F)c2nc(N[C@H]3CCCCNC3)[nH]c12 [Example 462, (S)-2-(azepan-3-ylamino)-N-(3-chloro-4-fluorophenyl)-4,5-difluoro-N′-hydroxy-1H-benzo[d]imidazole-7-carboximidamide]
27 |  | 1330 nM | CC(C)CNCc1nc2nccc(/C(=N/O)Nc3ccc(F)c(Cl)c3)c2[nH]1 [Example 196, N-(3-Chloro-4-fluorophenyl)-N′-hydroxy-2-((isobutylamino)methyl)-1H-imidazo[4,5-b]pyridine-7-carboximidamide]
28 |  | 442 nM | O/N=C(\Nc1ccc(F)c(Cl)c1)c1ccnc2nc(NCCN3CCCC(F)C3)[nH]c12 (stereo not shown) [Example 237, N-(3-chloro-4-fluorophenyl)-2-((2-(3-fluoropiperidin-1-yl)ethyl)amino)-N′-hydroxy-1H-imidazo[4,5-b]pyridine-7-carboximidamide]
